Assay [1] has as its target T1, SARS-CoV-2 PLpro (nsp3 1564–1878) (Severe acute respiratory syndrome coronavirus 2, UniProt P0DTD1). Description: biochemical. Also on record: FRET-quenched peptide (Pro3) cleavage by PLpro, 10 min pre-incubation, slope over 20 min, normalised to no-compound control. As to conditions: read-out: % of control remaining.
Assay [2] concerns the target T1, SARS-CoV-2 PLpro (nsp3 1564–1878). Description: biochemical. Also on record: FRET-quenched peptide (Pro3) cleavage by PLpro, 10 min pre-incubation, slope over 20 min, normalised to no-compound control. As to conditions: read-out: % of control remaining. The source holds these as a separate data set.

Consider 28 compounds from publication PMC8286840, “Identifying SARS-CoV-2 antiviral compounds by screening for small molecule inhibitors of Nsp3 papain-like protease” (Biochemical Journal, 2021).

Molecules are shown by their SMILES. Counter-ions that a name gives are not always drawn. Like-named read-outs stand apart in the source and are kept apart here. Where a SMILES comes first, the peptide text is derived from it.

On to `C[C@@H](O)[C@@H]1NC(=O)[C@H](CCCCN)NC(=O)[C@@H](Cc2c[nH]c3ccccc23)NC(=O)[C@H](Cc2ccccc2)NC(=O)[C@@H](NC(=O)[C@H](N)Cc2ccccc2)CSSC[C@@H](C(=O)N[C@H](CO)[C@@H](C)O)NC1=O` [Octreotide], for which the remaining activity at 3.75 µM in assay [1] (Well no.=1977, high concentration screen) came to 107%. In addition, the remaining activity at 1.25 µM in assay [2] (Well no.=1977, low concentration screen) was 103%.
On to `CC(C)(F)C[C@H](N[C@@H](c1ccc(-c2ccc(S(C)(=O)=O)cc2)cc1)C(F)(F)F)C(=O)NC1(C#N)CC1` [Odanacatib (MK-0822)], for which, in assay [1] (Well no.=8836, high concentration screen), the remaining activity at 3.75 µM was 92.8%. Also, the remaining activity at 1.25 µM in assay [2] (Well no.=8836, low concentration screen) was 88.7%.
Turning to `CC1COc2c(N3CCN(C)CC3)c(F)cc3c(=O)c(C(=O)O)cn1c23` (stereo not shown) [Ofloxacin], the remaining activity at 3.75 µM in assay [1] (Well no.=898, high concentration screen) stood at 105%; in assay [1] (Well no.=2047, high concentration screen), 104%. Also, the remaining activity at 1.25 µM in assay [2] (Well no.=898, low concentration screen) came out at 106%; in assay [2] (Well no.=2047, low concentration screen) it was 104%.
Regarding `N[C@@H](CCC(=O)O)C(=O)N[C@@H](Cc1c[nH]c2ccccc12)C(=O)O` [Oglufanide] (H-Glu-Trp-OH), the remaining activity at 3.75 µM in assay [1] (Well no.=8604, high concentration screen) was found to be 101%. Also, in assay [2] (Well no.=8604, low concentration screen), the remaining activity at 1.25 µM came to 107%.
For the compound `Cc1cc2c(s1)Nc1ccccc1N=C2N1CCN(C)CC1` [Olanzapine], the remaining activity at 3.75 µM turned out to be 95.2% in assay [1] (Well no.=1828, high concentration screen) and 111% in assay [1] (Well no.=8193, high concentration screen). The remaining activity at 1.25 µM in assay [2] (Well no.=1828, low concentration screen) was 93.3%; in assay [2] (Well no.=8193, low concentration screen) it was 106%.
For `CC1(C)CC[C@]2(C(=O)O)CC[C@]3(C)C(=CC[C@@H]4[C@@]5(C)CC[C@H](O)C(C)(C)[C@@H]5CC[C@]43C)[C@@H]2C1` [Oleanolic acid], the remaining activity at 3.75 µM came to 91.6% in assay [1] (Well no.=3448, high concentration screen) and 96.8% in assay [1] (Well no.=6443, high concentration screen). In addition, the remaining activity at 1.25 µM in assay [2] (Well no.=3448, low concentration screen) amounted to 96.1%; in assay [2] (Well no.=6443, low concentration screen) it was 95.4%.
Consider `CCCCCCCC/C=C\CCCCCCCC(=O)O` [Oleic Acid], for which the remaining activity at 3.75 µM in assay [1] (Well no.=848, high concentration screen) was determined as 101%; in assay [1] (Well no.=7347, high concentration screen), 104%. Further, in assay [2] (Well no.=848, low concentration screen), the remaining activity at 1.25 µM came to 102%.
As for `CCCCCCCC/C=C\CCCCCCCC(=O)NCCc1ccc(O)c(O)c1` [Oleoyl dopamine], the remaining activity at 3.75 µM in assay [1] (Well no.=4539, high concentration screen) was 100%. For the same compound, in assay [2] (Well no.=4539, low concentration screen), the remaining activity at 1.25 µM was determined as 95.5%.
Regarding `CC[C@@H]1/C=C/C=C/C[C@H](C)[C@H](O)[C@](C)(O)C(=O)[C@H](C)[C@@H](O)[C@H](C)C(=O)[C@H](C)[C@@H](O)[C@H](C)/C=C/C(=O)O[C@H]2[C@@H](C)[C@@H](CC1)O[C@@]1(CC[C@@H](C)[C@@H](C[C@H](C)O)O1)[C@@H]2C` [Oligomycin A], the remaining activity at 3.75 µM in assay [1] (Well no.=850, high concentration screen) is 103%; in assay [1] (Well no.=3423, high concentration screen) it was 96.5%. Besides, the remaining activity at 1.25 µM in assay [2] (Well no.=850, low concentration screen) came to 105%; in assay [2] (Well no.=3423, low concentration screen) it was 98.1%.
For `CCCc1nc(C(C)(C)O)c(C(=O)OCc2oc(=O)oc2C)n1Cc1ccc(-c2ccccc2-c2nnn[nH]2)cc1` [Olmesartan (medoxomil)], in assay [1] (Well no.=7579, high concentration screen), the remaining activity at 3.75 µM was 92.2%. In addition, in assay [2] (Well no.=7579, low concentration screen), the remaining activity at 1.25 µM worked out at 98.2%.
Consider `CCCc1nc(C(C)(C)O)c(C(=O)O)n1Cc1ccc(-c2ccccc2-c2nnn[nH]2)cc1` [Olmesartan], for which the remaining activity at 3.75 µM was 95.4% in assay [1] (Well no.=1794, high concentration screen) and 99% in assay [1] (Well no.=7669, high concentration screen). Also, the remaining activity at 1.25 µM is 94.8% in assay [2] (Well no.=1794, low concentration screen) and 100% in assay [2] (Well no.=7669, low concentration screen).
In the case of `COc1ccc2c(c1OCc1ccccc1)C[C@@H](C(=O)O)N(C(=O)C(c1ccccc1)c1ccccc1)C2` [Olodanrigan], the remaining activity at 3.75 µM in assay [1] (Well no.=8122, high concentration screen) stood at 99.4%. Further, in assay [2] (Well no.=8122, low concentration screen), the remaining activity at 1.25 µM was 100%.
As for `Cn1cnc2c(NCc3ccccc3)nc(NCCO)nc21` [Olomoucine - 6-(Benzylamino)-2-(2-hydroxyethylamino)-9-methylpurine], in assay [1] (Well no.=2382, high concentration screen), the remaining activity at 3.75 µM came out at 102%. Besides, the remaining activity at 1.25 µM in assay [2] (Well no.=2382, low concentration screen) was 101%.
`CC[C@H](CO)Nc1nc(NCc2ccccc2O)c2ncn(C(C)C)c2n1` [Olomoucine II]: the remaining activity at 3.75 µM in assay [1] (Well no.=2523, high concentration screen) stood at 102%. Further, the remaining activity at 1.25 µM in assay [2] (Well no.=2523, low concentration screen) was 99.8%.
Consider `Cn1cnc2c(NCc3ccccc3)nc(NCCO)nc21` [Olomoucine], for which, in assay [1] (Well no.=800, high concentration screen), the remaining activity at 3.75 µM amounted to 98.3%. For the same compound, the remaining activity at 1.25 µM in assay [2] (Well no.=800, low concentration screen) was 96.5%.
Consider `CN(C)CC/C=C1/c2ccccc2COc2ccc(CC(=O)O)cc21` [Olopatadine (hydrochloride)], for which the remaining activity at 3.75 µM in assay [1] (Well no.=8201, high concentration screen) was found to be 102%. The remaining activity at 1.25 µM in assay [2] (Well no.=8201, low concentration screen) worked out at 104%.
On to `O=C(O)c1cc(/N=N/c2ccc(O)c(C(=O)O)c2)ccc1O` [Olsalazine (Disodium)], for which the remaining activity at 3.75 µM in assay [1] (Well no.=7496, high concentration screen) came to 92.2%. For the same compound, the remaining activity at 1.25 µM in assay [2] (Well no.=7496, low concentration screen) was determined as 93.9%.
For `O=C(O)c1cc(/N=N/c2ccc(O)c(C(=O)O)c2)ccc1O` [Olsalazine Sodium], the remaining activity at 3.75 µM in assay [1] (Well no.=4688, high concentration screen) stood at 97.9%. Also, in assay [2] (Well no.=4688, low concentration screen), the remaining activity at 1.25 µM was 101%.
As to `Cc1c(-c2cnccn2)ssc1=S` [Oltipraz], the remaining activity at 3.75 µM in assay [1] (Well no.=2049, high concentration screen) was 112%. For the same compound, the remaining activity at 1.25 µM in assay [2] (Well no.=2049, low concentration screen) came out at 109%.
Turning to `CCCCCCCC/C=C\CCCCCCCC(=O)NCc1ccc(O)c(OC)c1` [Olvanil], the remaining activity at 3.75 µM in assay [1] (Well no.=5771, high concentration screen) came out at 90%. For the same compound, the remaining activity at 1.25 µM in assay [2] (Well no.=5771, low concentration screen) was 94.2%.
For `O=C(N[C@H]1CCS[C@H]2CCC[C@@H](C(=O)O)N2C1=O)[C@@H](S)Cc1ccccc1` [Omapatrilat], in assay [1] (Well no.=8466, high concentration screen), the remaining activity at 3.75 µM turned out to be 95%. Also, the remaining activity at 1.25 µM in assay [2] (Well no.=8466, low concentration screen) was 99.9%.
For `CS(=O)(=O)n1cc2c(n1)CN([C@H]1CO[C@H](c3cc(F)ccc3F)[C@@H](N)C1)C2` [Omarigliptin (MK-3102)], the remaining activity at 3.75 µM in assay [1] (Well no.=8824, high concentration screen) worked out at 96.5%. For the same compound, the remaining activity at 1.25 µM in assay [2] (Well no.=8824, low concentration screen) stood at 98.1%.
In the case of `COc1ccc2[nH]c([S+]([O-])Cc3ncc(C)c(OC)c3C)nc2c1` (stereo not shown) [Omeprazole], the remaining activity at 3.75 µM in assay [1] (Well no.=2051, high concentration screen) worked out at 101%. Moreover, in assay [2] (Well no.=2051, low concentration screen), the remaining activity at 1.25 µM turned out to be 101%.
Take `O=Cc1cn(Cc2ccc(Cl)cc2)c2ccccc12` [Oncrasin-1]: the remaining activity at 3.75 µM in assay [1] was determined as 101%. The remaining activity at 1.25 µM in assay [2] is 95.2%.
`Cc1nccn1CC1CCc2c(c3ccccc3n2C)C1=O` (stereo not shown) [Ondansetron]: the remaining activity at 3.75 µM in assay [1] (Well no.=2104, high concentration screen) worked out at 102%. The remaining activity at 1.25 µM in assay [2] (Well no.=2104, low concentration screen) is 102%.
`OCCN1CCN(CCCN2c3ccccc3C=Cc3ccccc32)CC1` [Opipramol dihydrochloride]: the remaining activity at 3.75 µM in assay [1] (Well no.=5510, high concentration screen) is 101%. Further, in assay [2] (Well no.=5510, low concentration screen), the remaining activity at 1.25 µM is 97.5%.
In the case of `COC[C@H](NC(=O)c1cnc(C)s1)C(=O)N[C@@H](COC)C(=O)N[C@@H](Cc1ccccc1)C(=O)[C@@]1(C)CO1` [Oprozomib (ONX 0912)], the remaining activity at 3.75 µM in assay [1] (Well no.=4976, high concentration screen) stood at 89.5%. Also, the remaining activity at 1.25 µM in assay [2] (Well no.=4976, low concentration screen) is 90.1%.
Turning to `COc1ccc(-c2cccc(C(=O)N(C)C)c2)cc1S(=O)(=O)Nc1cccc(NCCNC(=O)c2cccc(C)c2)c1` [Orexin 2 Receptor Agonist], the remaining activity at 3.75 µM in assay [1] (Well no.=6951, high concentration screen) came out at 103%. Also, the remaining activity at 1.25 µM in assay [2] (Well no.=6951, low concentration screen) was 105%.
